Results as given in ChEMBL document CHEMBL4825746, “Combination Therapy Comprising A2A/A2B and PD-1/PD-L1 Inhibitors for Treating Cancer” (ACS Med Chem Lett, 2021).

Legend:
[1] = target: T1, Adenosine receptor A2b (Homo sapiens, UniProt P29275); assay: Inhibition of human adenosine A2B receptor expressed in HEK293 cells assessed as reduction in NECA-stimulated cAMP accumulation preincubated for 30 mins followed by NECA stimulation for 60 mins by FRET assay; type: functional, cell-based
T1 sequence (P29275 whole entry): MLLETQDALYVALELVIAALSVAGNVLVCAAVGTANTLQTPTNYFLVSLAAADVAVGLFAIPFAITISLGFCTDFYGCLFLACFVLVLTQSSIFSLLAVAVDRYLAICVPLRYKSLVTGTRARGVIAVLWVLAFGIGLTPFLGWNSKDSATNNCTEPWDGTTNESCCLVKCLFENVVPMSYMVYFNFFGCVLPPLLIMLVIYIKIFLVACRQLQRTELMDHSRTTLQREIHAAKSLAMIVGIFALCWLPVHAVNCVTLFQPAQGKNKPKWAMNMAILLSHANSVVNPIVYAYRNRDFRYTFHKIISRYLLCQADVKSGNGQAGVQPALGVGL

[2] = target: Adenosine receptor A2a (Homo sapiens, UniProt P29274); assay: Displacement of L0058RED from adenosine A2A receptor (unknown origin) in Tag-lite labeled cells measured after 45 mins by fluorescence based HTRF assay; type: cell-based
Adenosine receptor A2a, sequence (P29274 whole entry): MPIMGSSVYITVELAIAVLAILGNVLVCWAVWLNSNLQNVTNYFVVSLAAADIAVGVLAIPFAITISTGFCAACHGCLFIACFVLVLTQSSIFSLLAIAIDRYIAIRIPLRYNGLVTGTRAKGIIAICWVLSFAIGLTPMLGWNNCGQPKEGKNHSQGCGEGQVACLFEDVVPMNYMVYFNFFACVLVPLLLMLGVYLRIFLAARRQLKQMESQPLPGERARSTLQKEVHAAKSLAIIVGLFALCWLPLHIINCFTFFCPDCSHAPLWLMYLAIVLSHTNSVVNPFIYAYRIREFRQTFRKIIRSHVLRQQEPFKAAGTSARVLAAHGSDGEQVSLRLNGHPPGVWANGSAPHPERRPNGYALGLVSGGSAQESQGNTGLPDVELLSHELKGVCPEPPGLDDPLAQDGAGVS

Compound	EC50 [1]	Ki [2]
Cc1ncoc1-c1c(-c2cccc(C#N)c2)nc(N)c2nc(C(N)c3c(F)cccc3F)nn12 (configuration not stated)	≤ 10 nM	≤ 10 nM
N#Cc1cccc(-c2nc(N)n3nc(C(O)c4c(F)cccc4F)nc3c2C#N)c1F (configuration not stated)	≤ 10 nM	≤ 10 nM
N#Cc1cccc(-c2nc(N)n3nc(Cc4cccnc4)nc3c2-c2ccncn2)c1	≤ 10 nM	≤ 10 nM
N#Cc1cccc(-c2cc3nc(C(O)c4c(F)cccc4F)nn3c(N)n2)c1F (configuration not stated)	≤ 10 nM	≤ 10 nM
Cn1nccc1-c1c(-c2cccc(C#N)c2F)nc(N)c2nn(Cc3ccccn3)nc12	≤ 10 nM	≤ 10 nM
N#Cc1cccc(-c2nc(N)c3nn(Cc4ncccc4F)nc3c2-c2ccncc2)c1	≤ 10 nM	≤ 10 nM
